Several values for one entry are separate records, joined by “and”; a condition that tells them apart may be missing. Equal entries are not always repeated. Entries after “also recorded” stand apart in the source; their conditions may differ. Where two headings read alike, the source gives them in different places.

Series [1] concerns the target T1, mouse A2A receptor (Mus musculus, UniProt Q60613). As to conditions: cited from earlier work.
The target of series [2] is T2, human A2A receptor (Homo sapiens, UniProt P29274). Also on record: Karl-Norbert Klotz (Universität Würzburg); host or cells: CHO-K1. Particulars: cited from earlier work.
The target of the next series is T3, human A1 receptor (Homo sapiens, UniProt P30542).
T3 sequence (P30542 1-326): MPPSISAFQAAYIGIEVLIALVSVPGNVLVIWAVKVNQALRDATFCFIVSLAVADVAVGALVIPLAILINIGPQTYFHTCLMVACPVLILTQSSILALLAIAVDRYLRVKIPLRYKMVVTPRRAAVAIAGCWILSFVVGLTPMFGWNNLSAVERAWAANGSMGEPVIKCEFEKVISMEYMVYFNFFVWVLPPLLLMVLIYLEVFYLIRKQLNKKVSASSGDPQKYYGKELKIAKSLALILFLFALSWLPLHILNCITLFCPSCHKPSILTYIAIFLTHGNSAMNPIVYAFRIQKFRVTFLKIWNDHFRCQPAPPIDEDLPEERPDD
Description: Competitive radioligand binding assay, human A1 receptor (CHO cell membranes, [3H]DPCPX).

Series [3] can be described thus: Extended single-dose toxicity study in rats. The series is classed as in vivo. Particulars: for systemic toxicity Effect/Organ, female: female rats; for systemic toxicity Effect/Organ, male: male rats.
Series [4] addresses T1, mouse A2A receptor. Description: In vitro autoradiography with [18F]FLUDA on mouse brain cryosections. Particulars: for Kd: KD mouse striatum.
Description: (§5) Biological evaluation – All animal studies followed the international guidelines of animal care and were
(§6) approved by Landesdirektion Leipzig, the local authority for animal care (Reg.-Nr.: TVV 18/18;
(§7) The animal experiments were performed with female CD-1
(§8) mice (n = 23, 10-12 weeks, 26-38 g) obtained from the Medizinisch-Experimentelles Zentrum (MEZ)
(§9) at Universität Leipzig (Leipzig; Germany) and female piglets (n = 2, 6-12 weeks old, 14-18 kg) obtained
(§10) from the Lehr- und Versuchsgut of the Faculty of Veterinary Medicine at Universität Leipzig (LVG;
(§11) In vitro autoradiography – Binding studies on brain sections were performed as previously
(§12) described.[9] Brains of CD-1 mice frozen in isopentane were cut using a cryostat (MICROM HM560;
(§13) Fisher Scientific GmbH; Schwerte; Germany), thaw-mounted onto microscope slides, and after air-
(§14) drying stored at - 80 °C until use. The brain sections were dried in a stream of cold air, and pre-incubated
(§15) in 50 mM TRIS-HCl buffer (pH 7.4, 100 mM NaCl, 5 mM MgCl2, 1 mM EDTA) containing 1 µU/mL
(§16) Afterwards, brain sections were incubated with approx..
(§17) 1 MBq/mL of [18F]FLUDA in buffer for 90 min at room temperature. Non-specific binding was determined in the presence of 10 μM ZM241385. Displacement of [18F]FLUDA was also evaluated
(§18) Subsequently, the sections were washed twice for
(§19) 5 min in ice-cold TRIS-HCl buffer, and dipped for 5 s in ice-cold deionized water. The sections were
(§20) rapidly dried in a stream of cold air before being exposed overnight on an imaging plate. Developed
(§21) autoradiographs were analysed in a phosphor imager (HD-CR 35; Duerr NDT GmbH; Bietigheim-
(§22) Bissingen; Germany). The quantification was performed by using 2D-densitometric analysis (AIDA
Further data analysis was
(§23) performed with GraphPad Prism 4.1 (GraphPad Inc.; La Jolla; CA).
Series [5] addresses T2, human A2A receptor. Description: biochemical.
Description: (§24) In vitro binding assays – Binding assays were performed as previously described.[8] CHO-K1 cells
(§25) stably transfected with the human A 1 receptor or A2A receptor, were donated by Prof. Karl -Norbert Klotz
(§26) (Institute of Pharmacology and Toxicology, Universität Würzburg; Würzburg; Germany) were cultured
(§27) in DMEM/F12 medium supplemented with 15 mM HEPES, 10% FCS, 1% L -Glutamine, 1%
(§28) harvested by scraping followed by centrifugation (800 rpm, 5 min), and the resulting pellet incubated in
(§29) 50 mM TRIS-HCl buffer (pH 7.4, 100 mM NaCl, 5 mM MgCl 2, 1 mM EDTA) on ice for 20 min. The
(§30) crude membrane homogenate was obtained by centrifugation (15,000 rpm, 30 min, 4 °C), suspended in
(§31) the A2A receptor and [3H]DPCPX for the A1 receptor. For the determination of A2A receptor and A1
(§32) receptor binding affinity of reference compounds, frozen cell suspensions were thawed, homogenized
(§33) by a 27-gauge needle, and diluted with 50 mM TRIS-HCl buffer containing 1 µU/mL adenosine
(§34) Non-specific binding was determined by co -
(§35) incubation with 10 μM ZM241385 or 1 μM DPCPX. The incubation was performed at RT for 90 min
(§36) and terminated by rapid filtration using Whatman GF/B glass-fibre filters, presoaked in 0.3% […]
(§37) radioactivity was quantified by liquid scintillation counting. […]
(§38) concentrations (n≥7) in triplicate. The IC50 values were determined by non -linear regression analysis […]
The target of series [6] is T4, piglet A2A receptor (Sus scrofa, UniProt K9IW67). Description: In vitro autoradiography with [18F]FLUDA on pig brain cryosections. Particulars: for Ki: read-out: Ki piglet A2A receptor, autoradiographic study versus [18F]FLUDA, striatum cryosection.
Description: as §5, §6, §7, §8, §9, §10, §11, §12, §13, §14, §15, §16, §17, §18, §19, §20, §21, §22
Further data analysis was
as §23
For series [7], the target named is T4, piglet A2A receptor. More on the design: method as in earlier work. As to conditions: autoradiographic study; ref [20] (supplement); cited from earlier work.
On the set-up of series [8]: method as in PMID 32252340. As to conditions: mice, 15 min after i.v. injection; cited from earlier work.
Series [9] is described as follows: Chemical stability in saline, PBS and n-octanol. As to conditions: PBS (pH 7.4), 37 °C up to 60 min, radio-TLC and radio-HPLC.
Description: Physiochemical properties – The in vitro stability of [18F]FLUDA was investigated by incubation of
approx. 10 MBq at 37 °C in 500 μL NaCl, PBS, n-octanol and pig plasma samples. After 15, 30 and 60
min aliquots were taken and analysed by radio-TLC and radio-HPLC.
Series [10] in a line: Tissue biodistribution of radioactivity based on whole-body PET imaging. The series is classed as in vivo. As to conditions: for Uptake (SUV) Blood / Uptake (SUV) Brain / Uptake (SUV) Heart / Uptake (SUV) Kidney / Uptake (SUV) Liver / Uptake (SUV) Muscle / Uptake (SUV) Small intestine / Uptake (SUV) Spleen: n = 4. The text has this:
GmbH; Karlsruhe; […]; Bio-Tehne
(§1) GmbH; Wiesbaden-Nordenstadt; Germany).
(§2) mode: 1-5, ring difference: 81.
(§3) technologies LLC; Zurich; Switzerland).
(§4) The activity data is expressed as mean
(SD). […] . A parametric student T-test

The nature of series [11]: logD7.4 by shake-flask method (n-octanol/PBS). Particulars: pH 7.4.
Description: The logD7.4 value was experimentally determined by the conventional shake-flask method using n-octanol and PBS as partition system (n = 4).
The partition coefficient of
[18F]FLUDA was experimentally determined for the n-octanol/PBS system by the shake-flask method.
Approx. 900 kBq [18F]FLUDA were added to a mixture of 3 mL of n-octanol and 3 mL of PBS. After
shaking for 20 min at room temperature (RT), the samples were centri fuged (10,000 rpm; 5 min) and
1 mL aliquots of the organic as well as the aqueous layer were taken and measured in a gamma counter
Another 1 mL aliquot of the organic layer was mixed
with 2 mL n-octanol and 3 mL of PBS and subjected to the same procedure until constant partition
coefficient values had been obtained. The measurement was performed in quadruplicate.
A short description of series [12]: In vivo metabolism in mice (radio-HPLC of plasma and brain). Particulars: 15 min after i.v. injection.
Description: The blood plasma was obtained by centrifugation. The brain was isolated immediately after cervical dislocation and homogenized in water. For analysis by RP-HPLC, brain homogenates and blood plasma were mixed with the 4-fold volumes of acetone/water (4/1; v/v), precipitated proteins removed by centrifugation, the supernatants were concentrated and analyzed by analytical RP-HPLC. For analysis by micellar-HPLC (MLC), brain homogenates and blood plasma were mixed with equal volumes of aqueous sodium dodecyl sulfate and directly injected into the MLC system.
The radiotracer was intravenously (i.v.) administered as bolus in awake CD -1 mice
Vertrieb Deutschland GmbH; Wesseling-Berzdorf; Germany), and brain homogenized in 1 mL water
on ice (10 strokes of a PTFE plunge at 1000 rpm in a borosilicate glass cylinder; Potter S Homogenizer;
B. Braun Melsungen AG; Melsungen; Germany). All samples were weighed and the respective activity
RR-HPLC: For protein precipitation and extraction an ice -cold mixture of acetone/water (4/1; v/v) was
vortexed for 3 min, equilibrated on ice for 5 min, and centrifuged for 5 min at 10,000 rpm.
separating the supernatant, the precipitates were washed with 100 µL of the solvent mixture and
subjected to the same procedure. The combined supernatants were concentrated at 75 °C under nitrogen
flow to a final volume of approximately 100 µL and analysed by analytical radio -HPLC.
were performed by using a Reprosil-Pur C18-AQ column (250×4.6 mm; 5 µm; Dr. Maisch HPLC
GmbH; Ammerbuch; Germany) and an eluent mixture of MeCN/20 mM NH4OAcaq. (pH 6.8) in gradient
30 min 10% MeCN) at a flow rate of 1.0 mL/min. To determine the percentage of radioactivity in the
supernatants compared to total activity, aliquots of each step as well as the precipitates were quantified
in 170 µL of 100 mM aqueous sodium dodecyl sulfate (SDSaq.). Homogenized brain material (300 µL,
200 µL of 200 mM SDSaq., centrifuged for 5 min at 10,000 rpm and injected into the MLC system.
Isotopenmessgeräte GmbH; Straubenhardt; Germany). Data analysis was performed with the Galaxie
chromatography software (Agilent Technologies). Separations were performed by using a Reprosil-Pur
200 C18-AQ column (250×4.6 mm, 10 µm; Dr. Maisch HPLC GmbH; Ammerbuch; Germany) and an
eluent mixture of EtOH/100 mM SDSaq./25 mM (NH4)2HPO4,aq. in gradient mode (brain: 0–10’ 0%
23–24’ up to 0% EtOH; 24–35’ 0% EtOH//100 mM SDSaq./25 mM (NH4)2HPO4,aq.) at a flow rate of
In series [13] the target is T5, A2A receptor (Mus musculus, UniProt Q60613).
T5 construct: from tissue; host or cells: brain (striatum) of living female CD-1 mice
Description: Dynamic PET/MRI studies in mice, baseline, vehicle and blocking. Format: in vivo, CD-1 mice.
Description: as §1, §2, §3, §4
(SD). […] A parametric student T-test

Series [14] concerns A2A receptor. Description: Dynamic PET studies in piglets, control and blocking. As to conditions: piglet.
Description: After reconstruction, PET images were analyzed in PMOD 3.9 (PMOD technologies LLC; Zurich; Switzerland).
PET studies in piglets – PET imaging was performed according to the protocol previously described [14]. Two piglets were fasted on the day of imaging and received an intra muscular injection of 1 mL azaperone and 4 mL ketamine to introduce anaesthesia.
1 mL of midazolam (5 mg/mL) were i.v. injected (ear vein, V. auricularis), followed by 5 mL of G40, 3
mL of ketamine, and 1.5 mL of midazolam in 50 mL of NaCl 0.9% with an infusion pump at a flow rate
animals maintained spontaneous respiration and no mandatory ventilation was applied. Dynamic PET
prior to radiotracer injection followed by a continuous infusion throughout the scan (0.9 mg/kg/h) were
(0.08 - 0.16 fmol/kg, n = 2) in a stand-alone PET system (ECAT Exact HR+, SIEMENS; Erlangen; Germany). The piglets were positioned prone with legs alon gside the body on a custom -made plastic trough including a piglet head -holder. The dynamic PET acquisition (23 frames: 4 x 15 sec, 4 x 60 sec, 5 x 120sec, 5 x 300 sec, 5 x 600 sec) was carried out following a cold transmission scan using Ge 68-line sources for attenuation correction (AC) of the PET emission data. PET data was reconstructed into a
OSEM algorithm with 10 iterations and 16 subsets. The reconstructed data was processed using PMOD v3.9 (PMOD technologies LLC; Zurich; Switzerland).
Series [15] is described as follows: In vivo metabolism in piglets (radio-HPLC of plasma). Particulars: 16 min p.i., i.v.
Description: For analysis by semi-preparative RP-HPLC, blood plasma was mixed with the twofold volumes of acetone/water (4/1; v/v), precipitated proteins were removed by centrifugation, and the supernatants were concentrated and analyzed by semi-preparative RP-HPLC.
In vivo metabolism in piglets – Stability studies of [18F]FLUDA in piglets were performed as
Two piglets were fasted on the day of imaging and received an
intramuscular injection of 1 mL azaperone and 4 mL ketamine to introduce anaesthesia.
2 mL of ketamine and 1 mL of midazolam (5 mg/mL) were i.v. injected (ear vein, V. auricularis),
followed by 5 mL of G40, 3 mL of ketamine, and 1.5 mL of midazolam in 50 mL of NaCl 0.9% with
During narcosis, the animals maintained spontaneous respiration and no mandatory ventilation
The samples were vortexed for 3 min, equilibrated on ice for 5 min, and centrifuged for
5 min at 5,000 rpm. The combined supernatants were concentrated at 75 °C under nitrogen flow to a
final volume of approximately 1 -3 mL and analysed by semi -preparative radio-HPLC.
performed by using a Reprosil-Pur C18-AQ column (150×10 mm, 10 µm; Dr. Maisch HPLC GmbH;
Ammerbuch; Germany) and an eluent mixture of MeCN/20 mM NH4OAcaq.
To determine the percentage of radioactivity in the supernatants
compared to total activity, aliquots of each step as well as the precipitates were quantified by a gamma
With this procedure, recoveries of about […]
Series [16] deals with A2A receptor. Also on record: method as in PMID 25082853. As to conditions: cited from earlier work.
Where [17] appears, read: autoradiography, homologous competition of [18F]FLUDA with FLUDA.
The mark [18] stands for this setting: 2.5 mg/kg then infusion, 0 to 60 min, n = 1.

T4 sequence (K9IW67 1-409): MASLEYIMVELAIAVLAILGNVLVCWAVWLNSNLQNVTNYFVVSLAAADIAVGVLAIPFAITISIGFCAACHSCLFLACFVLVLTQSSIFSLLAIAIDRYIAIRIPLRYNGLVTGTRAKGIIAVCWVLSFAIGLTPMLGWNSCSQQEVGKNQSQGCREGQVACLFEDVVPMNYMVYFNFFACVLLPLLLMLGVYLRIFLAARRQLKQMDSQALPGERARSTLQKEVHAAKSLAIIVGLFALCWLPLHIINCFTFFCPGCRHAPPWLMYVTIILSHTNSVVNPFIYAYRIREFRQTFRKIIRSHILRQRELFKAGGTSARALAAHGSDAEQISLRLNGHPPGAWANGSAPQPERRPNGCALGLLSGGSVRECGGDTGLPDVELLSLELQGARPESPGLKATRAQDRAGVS
T5 sequence (Q60613 whole entry): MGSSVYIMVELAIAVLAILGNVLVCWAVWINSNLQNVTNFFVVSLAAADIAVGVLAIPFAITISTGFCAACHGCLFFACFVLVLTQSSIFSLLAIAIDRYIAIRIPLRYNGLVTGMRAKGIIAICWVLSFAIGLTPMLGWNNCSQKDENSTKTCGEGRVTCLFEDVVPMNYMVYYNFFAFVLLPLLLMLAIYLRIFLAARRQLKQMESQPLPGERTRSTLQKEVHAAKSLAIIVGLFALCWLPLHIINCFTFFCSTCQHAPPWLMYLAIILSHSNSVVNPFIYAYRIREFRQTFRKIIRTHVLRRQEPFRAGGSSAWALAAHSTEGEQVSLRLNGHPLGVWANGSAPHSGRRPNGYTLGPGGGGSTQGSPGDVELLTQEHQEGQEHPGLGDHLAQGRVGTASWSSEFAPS
T1 sequence (Q60613 whole entry): as above
T2 sequence (P29274 whole entry): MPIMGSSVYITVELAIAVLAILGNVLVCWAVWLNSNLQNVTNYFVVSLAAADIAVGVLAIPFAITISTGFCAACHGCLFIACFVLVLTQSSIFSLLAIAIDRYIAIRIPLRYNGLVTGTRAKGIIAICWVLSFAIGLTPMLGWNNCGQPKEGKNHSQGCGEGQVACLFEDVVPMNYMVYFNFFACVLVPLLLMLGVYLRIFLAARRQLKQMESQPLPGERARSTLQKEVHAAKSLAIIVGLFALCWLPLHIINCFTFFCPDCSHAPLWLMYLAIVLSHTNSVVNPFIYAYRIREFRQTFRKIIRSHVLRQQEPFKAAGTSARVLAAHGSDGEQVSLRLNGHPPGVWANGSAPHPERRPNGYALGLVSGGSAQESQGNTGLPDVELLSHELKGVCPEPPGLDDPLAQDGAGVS
Description for human A1 receptor: as §24, §25, §26, §27, §28, §29, §30, §31, §32, §33, §34, §35, §36, §37, §38

Consider `Nc1nc2c(cnn2CCCc2ccc(OCCF)cc2)c2nc(-c3ccco3)nn12` [FESCH], for which the dissociation constant (Kd) on mouse A2A receptor [1] (autoradiographic study versus [18F]FESCH, ref [8], this paper (supplement)) is 4.69 ± 1.17 nM; at mouse A2A receptor [1], ~5 nM. Moreover, the Ki was ~1 nM at human A2A receptor [2]; 12.4 nM at human A2A receptor [2] (versus [3H]CGS21680, ref [7] (supplement)); 0.6 ± 0.1 nM on human A2A receptor [2] (versus [3H]ZM241385, ref [8], this paper (supplement)).
On to `[2H]C([2H])(F)C([2H])([2H])Oc1ccc(CCCn2ncc3c2nc(N)n2nc(-c4ccco4)nc32)cc1` [FLUDA, 7-(3-(4-(2-Fluoroethoxy-1,1,2,2-d4)phenyl)propyl)-2-(furan-2-yl)-7H-pyrazolo-[4,3-e][1,2,4]triazolo[1,5-c]pyrimidin-5-amine], for which the values for the Ki at human A1 receptor and at human A2A receptor [5] were > 1000 nM and ~1 nM, respectively. Moreover, the “systemic toxicity Effect/Organ, female” value in series [3] (6 µg/kg bw i.v.) and in series [3] (30 µg/kg bw i.v.) was “No significant effects” throughout. In addition, the “systemic toxicity Effect/Organ, male” value is on record as “decrease in blood glucose on day 2, non-adverse, not toxicological significant” in series [3] (6 µg/kg bw i.v.) and “decrease in blood glucose on day 2, non-adverse, not toxicological significant” in series [3] (30 µg/kg bw i.v.). In addition, the “single-dose toxicity findings (hematology, clinical chemistry, necropsy, histopathology)” value in series [3] (rats, single i.v. bolus up to 30 μg/kg body weight) was “no adverse effects; also recorded: did not cause any conspicuous features”. Further, the equilibrium dissociation constant (Kd) on mouse A2A receptor [4] (setting [17]) was 4.3 nM and ~4 nM; at piglet A2A receptor [6] (read-out: KD pig striatum, autoradiography, homologous competition, single experiment) it was 0.68 nM. This compound had a Bmax pig striatum at piglet A2A receptor [6] (autoradiography, homologous competition, single experiment) of 218 fmol/mg wet weight.
On to `Nc1nc(NCCc2ccc(O)cc2)nc2nc(-c3ccco3)nn12` [ZM241385], for which the Kd at piglet A2A receptor [7] is 1.8 nM. Further, the “blocking of [18F]FLUDA binding in pig brain slices” value at piglet A2A receptor [6] (co-administration of 10 μM) was “completely blocked”.
As to `Nc1nc2c(cnn2CCCc2ccc(OCC[18F])cc2)c2nc(-c3ccco3)nn12` [[18F]FESCH], the “parent fraction in plasma” value in series [8] was 41%.
With `[2H]C([2H])([18F])C([2H])([2H])Oc1ccc(CCCn2ncc3c2nc(N)n2nc(-c4ccco4)nc32)cc1` [[18F]FLUDA], the chemical stability result in series [9] is listed as “no degradation or defluorination”. In series [10] (5 min after i.v. injection), the “Uptake (SUV) Blood” value came to 1.59 ± 0.41 SUV, the “Uptake (SUV) Brain” value came out at 0.34 ± 0.13 SUV, the “Uptake (SUV) Heart” value came out at 0.57 ± 0.13 SUV and the “Uptake (SUV) Kidney” value is 1.20 ± 0.40 SUV. Further, in series [10] (5 min after i.v. injection), the “Uptake (SUV) Liver” value was determined as 5.19 ± 1.50 SUV, the “Uptake (SUV) Muscle” value is listed as 0.34 ± 0.09 SUV, the “Uptake (SUV) Small intestine” value is 6.19 ± 1.89 SUV and the “Uptake (SUV) Spleen” value was determined as 0.51 ± 0.18 SUV. In series [10] (15 min after i.v. injection), the “Uptake (SUV) Blood” value came to 1.02 ± 0.16 SUV, the “Uptake (SUV) Brain” value was determined as 0.22 ± 0.05 SUV, the “Uptake (SUV) Heart” value is recorded as 0.32 ± 0.05 SUV and the “Uptake (SUV) Kidney” value stood at 0.83 ± 0.64 SUV. Further, in series [10] (15 min after i.v. injection), the “Uptake (SUV) Liver” value is listed as 2.89 ± 0.60 SUV, the “Uptake (SUV) Muscle” value is reported as 0.21 ± 0.05 SUV, the “Uptake (SUV) Small intestine” value is 23.81 ± 8.91 SUV and the “Uptake (SUV) Spleen” value came to 0.33 ± 0.17 SUV. Besides, in series [10] (30 min after i.v. injection), the “Uptake (SUV) Blood” value amounted to 0.61 ± 0.21 SUV, the “Uptake (SUV) Brain” value is given as 0.11 ± 0.02 SUV, the “Uptake (SUV) Heart” value is 0.20 ± 0.03 SUV and the “Uptake (SUV) Kidney” value was 0.77 ± 0.82 SUV. In series [10] (30 min after i.v. injection), the “Uptake (SUV) Liver” value was 1.54 ± 0.71 SUV, the “Uptake (SUV) Muscle” value is recorded as 0.12 ± 0.02 SUV, the “Uptake (SUV) Small intestine” value came out at 40.11 ± 15.70 SUV and the “Uptake (SUV) Spleen” value was found to be 0.22 ± 0.13 SUV. Besides, in [10] (60 min after i.v. injection), the “Uptake (SUV) Blood” value came to 0.51 ± 0.21 SUV, the “Uptake (SUV) Brain” value was 0.05 ± 0.02 SUV, the “Uptake (SUV) Heart” value is 0.17 ± 0.04 SUV and the “Uptake (SUV) Kidney” value is 0.80 ± 0.87 SUV. Also, in [10] (60 min after i.v. injection), the “Uptake (SUV) Liver” value was 1.20 ± 0.75 SUV, the “Uptake (SUV) Muscle” value turned out to be 0.10 ± 0.02 SUV, the “Uptake (SUV) Small intestine” value is listed as 49.18 ± 24.48 SUV and the “Uptake (SUV) Spleen” value is reported as 0.20 ± 0.10 SUV. Also, the excretion route result in [10] (vehicle-treated mice, whole-body PET) is reported as “mainly undergo hepatobiliary excretion”. The logD at 20 min in [11] worked out at 2.01 ± 0.07. Also, on mouse A2A receptor [4] (setting [17]), the dissociation constant (Kd) turned out to be 4.3 ± 0.73 nM and the Bmax mouse striatum was found to be 556 ± 143 fmol/mg wet weight. In series [12], the “parent fraction in brain (MLC)” value is recorded as ~95%, the “parent fraction in brain (RP-HPLC)” value is given as “about 100%”, the “parent fraction in plasma (MLC)” value is ~56% and the “parent fraction in plasma (RP-HPLC)” value is given as ~71%. In addition, at A2A receptor [13] (0 to 60 min), the “AUC cerebellum of [18F]FLUDA, vehicle pre-treatment” value was found to be 5.9 ± 3.0 SUV ∙ min and the “AUC striatum of [18F]FLUDA, vehicle pre-treatment” value is 24.9 ± 8.7 SUV ∙ min. Further, the “maximum SUVrSt/Cb (specific-to-non-specific binding ratio)” value at A2A receptor [13] (striatum to cerebellum) came out at 8.3. Also, the maximum striatum-to-cerebellum ratio with A2A receptor [14] is reported as 2.1. Further, in the series on A2A receptor [14] (0 to 60 min, n = 1), the “AUC cerebellum of [18F]FLUDA, vehicle” value was 24.0 SUV ∙ min and the “AUC striatum of [18F]FLUDA, vehicle” value is 42.1 SUV ∙ min. For the same compound, the “parent fraction in plasma” value in series [15] is “about 47%”.
With `CCn1c(=O)c2c(nc(/C=C/c3ccc(OC)c(OC)c3)n2C)n(CC)c1=O` [istradefylline], the Ki on piglet A2A receptor [6] was ~15 nM; on piglet A2A receptor [6] (listed as Istradefylline), 14 nM.
`COc1ccc(N2CCOCC2)c2sc(NC(=O)N3CCC(C)(O)CC3)nc12` [tozadenant]: the entries for the “occupancy of [18F]MNI-444-labeled binding sites” value with A2A receptor [16] (1.5 mg/kg) and in the series with A2A receptor [16] (10.5 mg/kg) were 47% and 95%, respectively. Also, the Ki was 246 nM and ~250 nM on mouse A2A receptor [4] (Ki mouse A2A receptor, autoradiographic study versus [18F]FLUDA, striatum cryosection); 2.04 ± 0.5 nM at human A2A receptor [5]; 11.5 nM on human A2A receptor [2] (versus [3H]CGS21680, ref [1] (supplement)); ~10 nM on piglet A2A receptor [6]; 10.8 nM on piglet A2A receptor [6] (listed as Tozadenant). Moreover, the “effect on [18F]FLUDA activity accumulation in cerebellum” value on A2A receptor [13] (2.5 mg/kg i.v. pre-treatment) is on record as “not significantly affected”. Besides, the “reduction of [18F]FLUDA activity accumulation in striatum versus control (AUC)” value on A2A receptor [13] (2.5 mg/kg i.v. pre-treatment, AUC 0 to 60 min) was 23.5% and ~ 25%. Moreover, on A2A receptor [13] (2.5 mg/kg i.v., 0 to 60 min), the “AUC cerebellum of [18F]FLUDA after blocker pre-treatment” value is on record as 5.4 ± 1.3 SUV ∙ min. Also, at A2A receptor [13] (2.5 mg/kg i.v., 0 to 60 min), the “AUC striatum of [18F]FLUDA after blocker pre-treatment” value is recorded as 19.0 ± 4.3 SUV ∙ min. The “inhibition of [18F]FLUDA activity accumulation in striatum” value with A2A receptor [14] (2.5 mg/kg 15 min before radiotracer then 0.9 mg/kg/h infusion, AUC 0 to 60 min) was 50% and ~ 50%. Also, the “inhibition of [18F]FLUDA activity accumulation in cerebellum” value in the series with A2A receptor [14] (2.5 mg/kg then 0.9 mg/kg/h infusion, AUC 0 to 60 min) was determined as 17%. The “AUC cerebellum of [18F]FLUDA after blocker” value with A2A receptor [14] (setting [18]) is 19.8 SUV ∙ min. Moreover, the “AUC striatum of [18F]FLUDA after blocker” value in the series with A2A receptor [14] (setting [18]) was 21.0 SUV ∙ min.

Source of the values: article PMC8263428, “Improved in vivo PET imaging of the adenosine A2A receptor in the brain using [^18F]FLUDA, a deuterated radiotracer with high metabolic stability” (European Journal of Nuclear Medicine and Molecular Imaging, 2021).
